Laboratory results: patent US4673747A, “Aminoalkylphenoxy derivatives” (Ikeda Mohando Co., Ltd., priority 1984, dated 1987)

Columns and labels:
[1] = test system: Gastric acid secretion induced by histamine; experiment: Inhibition effect on gastric acid secretion induced by histamine in pylorus ligated rat (subcutaneous); type: in vivo, rat (male Wistar); conditions: histamine 3 mg/kg SC, average of five runs, * p<0.05, ** p<0.01 vs control group, read-out: Secretion of Gastric Acid in Rat, Inhibition Rate (%); for inhibition in vivo at 0.2 mg/kg: 0.2 mg/kg SC
Experimental: A male Wistar rat having a body weight of about 160 g and which had not fed for 24 hours was anesthetized by an intraperitonea dose of 1.2 g/kg of uretane. After ligating of pylorus and esophagus, the gaster anterior was incised and fitted with a double polyethylene cannula. The wall of the stomach was rinsed with 5 ml of saline at 30 minute intervals, and the quantities of gastric acid contained in each rinsing solution were measured by titration.
The basal acid secretion was initially measured three times, and then 0.2 mg/kg or 0.5 mg/kg of each of the compounds of this invention was administered subcutaneously and 3 mg/kg of histamine was administered subcutaneously after the lapse of an additional 30 minutes.
The quantity of gastric acid secreated after the operation was measured continuously for 3 hours. Within that measurement interval, three time points at which the increase in acid secretion reached a maximum level were selected, and the average quantity of gastric acid secreted at those time points was taken as the increase in acid secretion, which was compared with the increase in acid secretion of the control group to calculate the percent inhibition for secretion of gastric acid. [formula] (The result was shown as the average value of five runs.)

Histamine H2-Receptor = biological target: T1, Histamine H2-Receptor (Cavia porcellus, UniProt P47747); parameters: species or system guinea pig (male Hartley); conditions: isolated guinea pig atrium; negative logarithm of molar concentration; heart beats, histamine dose-response; read-out: Antagonistic Action against Histamine H2-Receptor (pA2) Determined by Using Atrium isolated from Guinea Pig (converted)
T1 construct: from tissue; host or cells: isolated atrium of male Hartley guinea pig
T1 sequence (P47747 whole entry): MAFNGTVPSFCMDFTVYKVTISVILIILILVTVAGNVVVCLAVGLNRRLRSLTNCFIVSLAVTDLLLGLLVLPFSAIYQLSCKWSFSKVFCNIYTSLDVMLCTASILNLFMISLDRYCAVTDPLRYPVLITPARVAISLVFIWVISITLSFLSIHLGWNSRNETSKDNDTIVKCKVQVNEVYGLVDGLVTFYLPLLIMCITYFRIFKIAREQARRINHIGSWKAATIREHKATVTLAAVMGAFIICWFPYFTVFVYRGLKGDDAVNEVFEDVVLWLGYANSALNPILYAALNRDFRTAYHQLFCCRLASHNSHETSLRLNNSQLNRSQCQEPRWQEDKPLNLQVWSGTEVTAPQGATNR
Experimental: A male Hartley guinea pig having a body weight of about 400 g was killed by cervical dislocation, and the artrium thereof was isolated and was suspended in an organ bath containing 50 ml of a modified Ringer solution and subjected to a tension of 1 g. The number of heart beats under such condition was recorded using a polygraph.
Initially, from 1×10^-7 mol to 3×10^-4 mol of histamine was allowed to act accumulatively to depict the curve of the dosage-reaction relationship. Likewise, the curve of the dosage of histamine-reaction relationship was depicted in the presence of 5×10^-7 mol to 1×10^-6 mol of the test sample which was injected 3 minutes before. The negative logarithm (pA2) of the molar concentration of the test sample required for moving the curve obtained by single administration of histamine parallel to the right side by a two-times concentration was calculated.

[2] = test system: Gastric acid secretion induced by histamine; experiment: Inhibitory effect of intraduodenally administered compounds on gastric acid secretion induced by histamine in rat; type: in vivo, rat (male Wistar); conditions: intraduodenal, rat; for ED50: 0.5 h, 30 minutes before SC histamine, read-out: Median effective dose (ED50), Gastric Acid Secretion; for Efficacy Ratio relative to Cimetidine (Cimetidine = 1): from ED50; for ED50 value: times as effective as Cimetidine (activity ratio): text discussing Table 2

| Compound | Kb (Histamine H2-Receptor) | inhibition in vivo at 0.2 mg/kg [1] | ED50 [2] | Efficacy Ratio relative to Cimetidine (Cimetidine = 1) [2] | inhibition in vivo at 0.5 mg/kg ([1]; 0.5 mg/kg SC) | ED50 value: times as effective as Cimetidine (activity ratio) [2] |
| --- | --- | --- | --- | --- | --- | --- |
| C#CCNc1c(NC/C=C\COc2cccc(CN3CCCCC3)c2)c(=O)c1=O [Ex. 4, 1-(2-propagylamino)-2-[4-<3-(1-piperidinomethyl)phenoxy>-cis-2-butenylamino]-1-cyclobuten-3,4-dione] | 776 nM | 66% |  |  |  |  |
| Nc1c(NC/C=C/COc2cccc(CN3CCCCC3)c2)c(=O)c1=O [Ex. 6, 1-amino-2-[4-<3-(1-piperidinomethyl)phenoxy>-trans-2-butenylamino]-1-cyclobuten-3,4-dione] | 178 nM | 25% |  |  |  |  |
| Nc1c(NC/C=C\COc2cccc(CN3CCCC3)c2)c(=O)c1=O [Ex. 8, 1-amino-2-[4-<3-(1-pyrrolidinomethyl)phenoxy>-cis-2-butenylamino]-1-cyclobuten-3,4-dione] | 151 nM | 88% | 0.07 mg/kg | 10.3 |  |  |
| Cn1c(NC/C=C/COc2cccc(CN3CCCCC3)c2)cc(N)nc1=O [Ex. 14, 1-methyl-4-amino-6-[4-<3-(1-piperidinomethyl)phenoxy>-trans-2-butenylamino]-(1H)-pyrimidin-2-one] | 7080 nM | -9% |  |  |  |  |
| CN(C)Cc1cccc(OC/C=C\CNc2n[s+]([O-])nc2N)c1 (stereo not drawn) [Ex. 21, 3-<4-(3-dimethylaminomethylphenoxy)-cis-2-butenylamino>-4-amino-1,2,5-thiadiazole-1-oxide] | 229 nM | 99% | 2 mg/kg | 3.6 |  |  |
| CNc1n[s+]([O-])nc1NC/C=C\COc1cccc(CN(C)C)c1 (stereo not drawn) [Ex. 22, 3-<4-(3-dimethylaminomethylphenoxy)-cis-2-butenylamino>-4-methylamino-1,2,5-thiadiazole-1-oxide] | 316 nM | 88% | 0.62 mg/kg | 11.6 |  |  |
| Nc1nnc(NC/C=C\COc2cccc(CN3CCCC3)c2)s1 [Ex. 29, 2-amino-5-[4-<3-(1-pyrrolidinomethyl)-phenoxy>-cis-2-butenylamino]-1,3,4-thadiazole] | 316 nM | 36% |  |  |  |  |
| CC1CCCCN1Cc1cccc(OC/C=C\CNc2c(N)c(=O)c2=O)c1 (stereo not drawn) [Ex. 33, 1-amino-2-[4-{3-<1-(2-methylpiperidino)-methyl>phenoxy}-cis-2-butenylamino]-1-cyclobutene-3,4-dione] | 166 nM | 70% | 0.4 mg/kg | 18.0 |  |  |
| CC1CCCN(Cc2cccc(OC/C=C\CNc3c(N)c(=O)c3=O)c2)C1 (stereo not drawn) [Ex. 34, 1-amino-2-[4-{3-<1-(3-methylpiperidino)methyl>phenoxy}-cis-2-butenylamino]-1-cyclobutene-3,4-dione] | 70.8 nM | 100% | 0.17 mg/kg | 42.1 |  |  |
| CC1CCN(Cc2cccc(OC/C=C\CNc3c(N)c(=O)c3=O)c2)CC1 [Ex. 35, 1-amino-2-[4-{3-<1-(4-methylpiperidino)methyl>phenoxy}-cis-2-butenylamino]-1-cyclobutene-3,4-dione] | 263 nM | 98% | 0.38 mg/kg | 18.9 |  |  |
| O=c1c(NC/C=C\COc2cccc(CN3CCCCC3)c2)c(NCc2cccnc2)c1=O [Ex. 37, 1-(3-pyridylmethylamino)-2-[4-<3-(1-piperidinomethyl)phenoxy>-cis-2-butenylamino]-1-cyclobutene-3,4-dione] | 646 nM | 90% | 0.074 mg/kg | 97.3 |  |  |
| NC1=NS(=O)(=O)N=C1NC/C=C\COc1cccc(CN2CCCCC2)c1 [Reference Ex. 1, 3-amino-4-[4-<3-(1-piperidinomethyl)phenoxy>-cis-2-butenylamino]-1,2,5-thiadiazole-1,1-dioxide, reference compound] |  |  | 0.2 mg/kg | 36.0 |  | 36 times |
| CNC1=NS(=O)(=O)N=C1NC/C=C\COc1cccc(CN2CCCCC2)c1 [Reference Ex. 2, 3-methylamino-4-[4-<3-(1-piperidinomethyl)phenoxy>-cis-2-butenylamino]-1,2,5-thiadiazole-1,1-dioxide, reference compound] |  |  | 0.44 mg/kg | 16.4 |  | 16 times |

More lines, main results first:

| Kb (Histamine H2-Receptor) | Compound | inhibition in vivo at 0.2 mg/kg [1] | ED50 [2] | Efficacy Ratio relative to Cimetidine (Cimetidine = 1) [2] | inhibition in vivo at 0.5 mg/kg ([1]; 0.5 mg/kg SC) | ED50 value: times as effective as Cimetidine (activity ratio) [2] |
| --- | --- | --- | --- | --- | --- | --- |
| 513 nM | CNc1c(NC/C=C/COc2cccc(CN3CCCCC3)c2)c(=O)c1=O [Ex. 7, 1-methylamino-2-[4-<3-(1-piperidinomethyl)phenoxy>-trans-2-butenylamino]-1-cyclobuten-3,4-dione] | 28% |  |  |  |  |
| 661 nM | Nc1n[nH]c(=O)nc1NC/C=C/COc1cccc(CN2CCCCC2)c1 [Ex. 11, 6-amino-5-[4-<3-(1-piperidinomethyl)phenoxy>-trans-2-butenylamino]-1,2,4-triazin-3-one] | 88% | 0.44 mg/kg | 16.4 |  |  |
| 1510 nM | CNc1nn(C)c(=O)nc1NC/C=C/COc1cccc(CN2CCCCC2)c1 [Ex. 12, 2-methyl-6-methylamino-5-[4-<3-(1-piperidinomethyl)phenoxy>-trans-2-butenylamino]-1,2,4-triazin-3-one] | 44% |  |  |  |  |
| 437 nM | Nc1n[s+]([O-])nc1NC/C=C\COc1cccc(CN2CCCCC2)c1 (stereo not drawn) [Ex. 15] |  | 0.066 mg/kg | 109.1 | 98% | ~110 times |
| 97.7 nM | Nc1n[s+]([O-])nc1NC/C=C\COc1cccc(CN2CCCC2)c1 (stereo not drawn) [Ex. 17, 3-amino-4-[4-<3-(1-pyrrolidinomethyl)phenoxy>-cis-2-butenylamino]-1,2,5-thiadiazole-1-oxide] | 86% | 0.82 mg/kg | 8.8 |  |  |
| 2400 nM | CC(C)Nc1n[s+]([O-])nc1NC/C=C\COc1cccc(CN2CCCCC2)c1 (stereo not drawn) [Ex. 19, 3-isopropylamino-4-[4-<3-(1-piperidinomethyl)phenoxy>-cis-2-butenylamino]-1,2,5-thiadiazole-1-oxide] | 82% | 0.88 mg/kg | 8.2 |  |  |
| 389 nM | CCCNc1n[s+]([O-])nc1NC/C=C\COc1cccc(CN2CCCCC2)c1 (stereo not drawn) [Ex. 20, 3-n-propylamino-4-[4-<3-(1-piperidinomethyl)phenoxy>-cis-2-butenylamino]-1,2,5-thiadiazol-1-oxide] | 88% | 0.58 mg/kg | 9.0 |  |  |
| 204 nM | Nc1nnc(NC/C=C/COc2cccc(CN3CCCCC3)c2)s1 [Ex. 25, 2-amino-5-[4-<3-(1-piperidinomethyl)phenoxy>-trans-2-butenylamino]-1,3,4-thiadiazole] | 77% |  |  |  |  |
| 9550 nM | CNc1nnc(NC/C=C/COc2cccc(CN3CCCCC3)c2)s1 [Ex. 26, 2-methylamino-5-[4-<3-(1-piperidinomethyl)-phenoxy>-trans-2-butenylamino]-1,3,4-thiadiazole] | 45% |  |  |  |  |
| 490 nM | Nc1nnc(NC/C=C\COc2cccc(CN3CCCCC3)c2)s1 [Ex. 27, 2-amino-5-[4-<3-(1-piperidinomethyl)-phenoxy>-cis-2-butenylamino]-1,3,4-thiadiazole] | 87% | 0.45 mg/kg | 16.0 |  |  |
| 4680 nM | CNc1nnc(NC/C=C\COc2cccc(CN3CCCCC3)c2)s1 [Ex. 28, 2-methylamino-5-[4-<3-(1-piperidinomethyl)-phenoxy>-cis-2-butenylamino]-1,3,4-thiadiazole] | 75% | 0.62 mg/kg | 11.6 |  |  |
| 550 nM | CNc1nnc(NC/C=C\COc2cccc(CN3CCCC3)c2)s1 [Ex. 30, 2-methylamino-5-[4-<3-(1-pyrrolidinomethyl)-phenoxy>-cis-2-butenylamino]-1,3,4-thiadiazole] | 17% |  |  |  |  |
